Source: patent US7595310B2, “Glucuronate salt of a piperazine compound” (Solvay Pharmaceuticals, B.V., priority 2005, dated 2009)

Experiments:
[1] = Comparative equilibrium solubility of salts of compound 1; settings: pH printed beside the equilibrium solubility
D2 receptors = D2 receptors (Homo sapiens, UniProt P14416); settings: in therapeutic models; cited from earlier work
5HT reuptake = settings: in therapeutic models; cited from earlier work
[2] = rodents; cited from earlier work
[3] = in vivo; cited from earlier work

D2 receptors, sequence (P14416 whole entry): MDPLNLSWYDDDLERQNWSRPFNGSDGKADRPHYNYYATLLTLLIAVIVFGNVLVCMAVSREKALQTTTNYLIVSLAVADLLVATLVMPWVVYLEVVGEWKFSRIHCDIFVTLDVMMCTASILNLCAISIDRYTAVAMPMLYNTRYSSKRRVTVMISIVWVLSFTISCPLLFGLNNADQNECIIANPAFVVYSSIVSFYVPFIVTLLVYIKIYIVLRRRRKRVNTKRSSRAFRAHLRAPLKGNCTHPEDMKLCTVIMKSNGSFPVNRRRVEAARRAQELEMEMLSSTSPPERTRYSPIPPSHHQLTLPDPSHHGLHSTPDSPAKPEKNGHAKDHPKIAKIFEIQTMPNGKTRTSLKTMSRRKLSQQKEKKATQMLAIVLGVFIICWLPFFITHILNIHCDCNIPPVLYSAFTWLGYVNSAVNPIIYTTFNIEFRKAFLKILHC

## CC1Oc2c(cccc2N2CCN(CCCc3c[nH]c4ccc(F)cc34)CC2)NC1=O (stereo not drawn) [compound 1, 8-{4-[3-(5-fluoro-1H-indol-3-yl)-propyl]-piperazin-1-yl}-2-methyl-4H-benzo[1,4]oxazin-3-one]
[1]; listed as freebase (1)
  pH: 4.72
D2 receptors
  activity at D2 receptors: antagonistic activity
5HT reuptake
  activity against 5HT reuptake: inhibitory activity
[2]
  propensity to induce catalepsy: low propensity
[3]
  activity in therapeutic models sensitive to clinically relevant antipsychotics, antidepressants, anxiolytics, Parkinson's disease: active

## CC1Oc2c(cccc2N2CCN(CCCc3c[nH]c4ccc(F)cc34)CC2)NC1=O (stereo not drawn) [compound 2]
[1]; listed as glucuronate (2)
  pH: 4.25
